Laboratory results as given in US20220378920A1, “CONJUGATE OF GalNAc-OLIGONUCLEOTIDE FOR DELIVERY TO LIVER AND MANUFACTURING METHOD THEREOF” (DAIICHI SANKYO COMPANY, LIMITED, priority 2019, published 2022).

Columns and labels:
[1] = system: ApoB mRNA; test: Inhibition of ApoB mRNA expression in human primary hepatocytes, qRT-PCR (Taqman assay); assay type: cell-based; settings: 72 hours, wells with no compounds added taken as 100%
Procedure: FIG. 3 is a graph showing degradation effects of ApoB mRNA in human primary cultured hepatocytes when ApoB-ASO (white column) and an ApoB-ASO conjugate (filled column) are added to the cells. The amounts of ApoB mRNA in the cells are quantitatively evaluated relatively by qRT-PCR (corrected by the amount of actin mRNA). The Y axis represents relative values (%) in the addition groups when the amount of ApoB mRNA in untreated human primary cultured hepatocytes is taken as 100%.
FBS (Gibco) was added to a Modified Lanford Medium (Nissui Pharmaceutical Co., Ltd) to 10%, to prepare an adhesion medium. Frozen human primary hepatocytes (Gibco, Hu8105) were taken out from a liquid nitrogen tank, thawed at 37° C., then immediately poured into CHRM (Invitrogen), and gently mixed, followed by centrifugation (100 g, 10 minutes) at room temperature. The supernatant was removed with an aspirator, and then an adhesion medium heated to 37° C. was added, to prepare a cell suspension. The number of living cells was counted by an automatic counter (Bio-Rad Laboratories, Inc.), and then the cells were seeded on a collagen-coated 24-well plate (the number of living cells seeded: 1.4 to 2.1×10^5 cells/well). After culture in a CO2 incubator for 4 to 5 hours, the cells were confirmed to be adhered with a microscope, and the compound addition experiment described below was performed.
To a Modified Lanford Medium containing 10% FBS, was added the compound of Reference Example 45 with no GalNAc derivatives bound or the compound of Example 208 with a GalNAc derivative bound, to prepare a compound-containing medium with a target concentration (which was 100 nM in ApoB mRNA, expression evaluation (1) and 10 nM and 100 nM in ApoB mRNA expression evaluation (2), as described below). After the medium of human primary hepatocytes in each well cultured in the 24-well plate had been removed by aspiration, the compound-containing medium was added in an amount of 0.5 mL for each, to start incubation 72 hours later, the later-described RNA extraction experiment was performed
Following incubation, the compound-containing medium in each well of human primary hepatocytes was removed by aspiration and the cells were washed with ice-cooled PBS (0.5 mL). A 1/100 amount of 2-Mercaptoethanol was added to the RTL buffer of the RNeasy Mini QIAcube Kit (QIAGEN K.K.) to prepare a cell lysate. The cell lysate was added in an amount of 400 μL per well and collected after incubation at room temperature for 5 minutes. […]
The reverse transcription reaction was performed as follows. […] 20 μL of the reverse transcription reaction product was diluted 5 times with 80 μL of purified water and stored at −30° C. or evaluated by qRT-PCR as follows. […]

[2] = system: G6PC mRNA (c.648G>T); test: Repair of abnormal splicing of G6PC mRNA in 293A cells cotransfected with human G6PC full-length plasmid vector (pcDNA hG6PC (c.648G>T)+Int4), qRT-PCR (SYBR Green); assay type: cell-based; settings: cotransfection with plasmid vector, oligonucleotide final 20 nM, 24 hours
Procedure: 293A cells were maintained and cultured in a maintenance medium (DMEM, 10% FBS). In the experiment, cells were seeded on a 6-well plate at a density of 2×10^5 cells/well and on a 12-well plate at a density of 1×10^5 cells/well, and the compound of each example and a plasmid vector were simultaneously introduced on the next day, as will be described later, to be used for evaluation.
The compound of each example and a plasmid vector were cotransfected as follows.
In the case of using a 6-well plate, 250 μL of Opti-MEM Medium (Gibco), 0.50 μL of plasmid vector (1 mg/mL), and 4.0 μL (final: 20 nM) of the compound produced in each example (12.5 μM) as solution A and 250 μL of Opti-MEM Medium (Gibco) and 6.0 μL of Lipofectamine2000 (Invitrogen) as solution B were prepared per well, and solution A and solution B were mixed. […]
A human G6PC full-length plasmid vector (pcDNA hG6PC (c.648G>T)+Int4) and each oligonucleotide (15e_001, 15e_002, and the compound of Example 93 of International Publication No. WO 2004/048570 as a control) were cotransfected and evaluated by qRT-PCR (SYBR Green) for whether abnormal splicing due to G6PC (c.648G>T) was repaired. […]

Substance	inhibition of ApoB mRNA expression ([1]; 10 nM) [%]	inhibition of ApoB mRNA expression ([1]; 100 nM) [%]	abnormal splicing of G6PC mRNA due to G6PC (c.648G>T) repaired [2]
X^20-G^e2s-C^e2s-A^s-T^s-T^s-G^s-G^s-T^s-A^s-T^s-T^e2s-C^e2s-A^e2s-H [ApoB-ASO conjugate]	30.3	68.6	
ApoB-ASO: oligonucleotide of the Example 24 sequence (SEQ ID No: 96) with no GalNAc units bound (AGCATTGGTATTCA; listed as DNA, further chemistry not given here)	4.4	41.2	
15e_001: oligonucleotide sequence 15e_001, the sequence of Example 8 (SEQ ID No: 40), tested as oligonucleotide (AAUCCGATGGCGAAG; chemistry not given here) [Example 15e_001]			normalized
